Read-outs that look alike come from different tables or passages of the source.
Experiments:
Androgen Receptor [1] = molecular target: T1, Androgen Receptor (Homo sapiens, UniProt P10275); test: Androgen Receptor ELISA assay (PathScan AR ELISA) in VCaP cells: AR degradation, Dmax and DC50; assay type: cell-based
T1 construct: endogenous in cells; host or cells: VCaP cells
T1 sequence (P10275 1-920): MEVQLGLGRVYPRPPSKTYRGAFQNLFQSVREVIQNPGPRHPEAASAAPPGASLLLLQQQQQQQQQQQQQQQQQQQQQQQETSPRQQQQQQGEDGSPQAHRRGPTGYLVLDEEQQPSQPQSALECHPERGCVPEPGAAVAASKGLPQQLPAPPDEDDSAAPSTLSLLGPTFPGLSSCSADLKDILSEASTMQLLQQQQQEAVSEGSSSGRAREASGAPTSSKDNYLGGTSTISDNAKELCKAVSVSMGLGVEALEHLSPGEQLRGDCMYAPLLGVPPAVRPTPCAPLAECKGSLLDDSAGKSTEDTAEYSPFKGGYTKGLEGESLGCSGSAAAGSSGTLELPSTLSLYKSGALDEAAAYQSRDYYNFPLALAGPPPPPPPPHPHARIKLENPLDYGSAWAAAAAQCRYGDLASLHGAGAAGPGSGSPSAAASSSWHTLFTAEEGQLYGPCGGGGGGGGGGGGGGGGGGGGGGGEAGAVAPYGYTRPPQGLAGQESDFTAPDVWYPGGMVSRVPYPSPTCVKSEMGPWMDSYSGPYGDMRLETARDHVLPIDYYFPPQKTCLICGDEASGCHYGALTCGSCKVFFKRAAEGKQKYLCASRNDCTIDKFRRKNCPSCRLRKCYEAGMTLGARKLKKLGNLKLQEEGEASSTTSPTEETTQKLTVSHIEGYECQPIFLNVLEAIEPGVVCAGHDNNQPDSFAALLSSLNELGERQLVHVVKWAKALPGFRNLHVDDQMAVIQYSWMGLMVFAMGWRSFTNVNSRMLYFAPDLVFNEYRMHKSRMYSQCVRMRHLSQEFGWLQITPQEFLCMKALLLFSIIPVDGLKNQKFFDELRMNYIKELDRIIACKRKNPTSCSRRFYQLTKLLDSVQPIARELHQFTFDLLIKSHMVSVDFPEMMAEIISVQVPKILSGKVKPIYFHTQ
How it was run: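 VCaP cells, 30,000/well, grown ≥3 days in phenol red-free RPMI with 5% charcoal-stripped FBS; compound added in 0.1% DMSO with 0.1 nM R1881, 7 half-log doses, 24 h. Lysate AR quantified by PathScan sandwich ELISA, HRP/TMB read at 450 nm, giving DC50 and Dmax.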

Androgen Receptor [2] = molecular target: T2, Androgen Receptor (Homo sapiens, UniProt P10275+P40337, T878A); test: Androgen Receptor ELISA assay (PathScan AR ELISA) in LNCaP cells: AR degradation, Dmax and DC50; assay type: cell-based; settings: for DC50: concentration that caused 50% Androgen Receptor degradation
T2 construct: Compounds have been evaluated in this assay in LNCaP and/or VCaP cells utilizing similar protocols; endogenous in cells; host or cells: LNCaP cells
T2 sequence (P10275 whole entry T878A): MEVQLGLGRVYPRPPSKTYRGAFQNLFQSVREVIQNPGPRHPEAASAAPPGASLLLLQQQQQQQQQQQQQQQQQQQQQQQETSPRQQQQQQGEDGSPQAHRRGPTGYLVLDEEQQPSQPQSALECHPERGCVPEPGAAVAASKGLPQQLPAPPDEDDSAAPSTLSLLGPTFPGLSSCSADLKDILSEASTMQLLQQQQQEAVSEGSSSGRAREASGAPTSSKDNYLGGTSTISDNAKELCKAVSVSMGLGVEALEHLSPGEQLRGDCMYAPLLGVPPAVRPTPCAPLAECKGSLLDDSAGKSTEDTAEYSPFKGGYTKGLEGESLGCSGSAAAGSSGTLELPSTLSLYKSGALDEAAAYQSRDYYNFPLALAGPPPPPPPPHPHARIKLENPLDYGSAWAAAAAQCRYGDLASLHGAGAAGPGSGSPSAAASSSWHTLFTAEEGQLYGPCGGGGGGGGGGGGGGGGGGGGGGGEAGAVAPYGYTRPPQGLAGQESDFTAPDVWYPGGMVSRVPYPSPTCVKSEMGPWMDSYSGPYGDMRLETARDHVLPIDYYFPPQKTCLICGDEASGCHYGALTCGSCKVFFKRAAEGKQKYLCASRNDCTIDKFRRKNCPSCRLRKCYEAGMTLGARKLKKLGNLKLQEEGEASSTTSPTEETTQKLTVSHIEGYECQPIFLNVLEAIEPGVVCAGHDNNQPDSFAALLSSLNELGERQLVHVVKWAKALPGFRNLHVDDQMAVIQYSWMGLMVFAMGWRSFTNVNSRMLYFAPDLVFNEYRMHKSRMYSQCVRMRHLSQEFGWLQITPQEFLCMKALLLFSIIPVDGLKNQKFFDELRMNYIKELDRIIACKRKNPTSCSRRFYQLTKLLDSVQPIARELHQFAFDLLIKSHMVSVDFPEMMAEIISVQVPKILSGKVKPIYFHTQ
T2 sequence (P40337 whole entry): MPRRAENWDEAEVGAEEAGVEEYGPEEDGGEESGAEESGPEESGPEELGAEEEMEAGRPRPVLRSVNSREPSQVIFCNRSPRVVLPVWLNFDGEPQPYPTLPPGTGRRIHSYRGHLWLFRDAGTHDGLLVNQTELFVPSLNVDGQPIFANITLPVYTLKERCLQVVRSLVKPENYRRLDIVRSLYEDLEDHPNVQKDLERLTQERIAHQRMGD
T2 sequence (Q15369 whole entry partner): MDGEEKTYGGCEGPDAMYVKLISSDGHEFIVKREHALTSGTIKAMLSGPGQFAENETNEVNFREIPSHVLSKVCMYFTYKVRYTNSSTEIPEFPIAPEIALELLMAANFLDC
T2 sequence (Q15370 whole entry partner): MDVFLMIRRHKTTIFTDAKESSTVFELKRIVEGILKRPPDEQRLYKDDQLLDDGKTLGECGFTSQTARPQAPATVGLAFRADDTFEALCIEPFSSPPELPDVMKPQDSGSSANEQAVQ

[3] = highest percentage of Androgen Receptor degradation observed
[4] = highest percentage of Androgen Receptor degradation

SMILES | Dmax (Androgen Receptor [1]; VCaP, read-out: VCaP Dmax (%)) | DC50 (Androgen Receptor [1]; read-out: VCaP DC50; concentration that caused 50% Androgen Receptor degradation, VCaP cells) | DC50 (Androgen Receptor [2]) | Dmax (Androgen Receptor [2]; [3]) | DC50 (Androgen Receptor [1]; read-out: VCaP DC50; VCaP cells; concentration that caused 50% Androgen Receptor degradation) | Dmax (Androgen Receptor [2]; [4])
Cc1ncsc1-c1ccc([C@H](C)NC(=O)[C@@H]2C[C@@H](O)CN2C(=O)[C@@H](NC(=O)COCCCOCCCCCOc2ccc(N3C(=S)N(c4ccc(C#N)c(C(F)(F)F)c4)C(=O)C3(C)C)cc2F)C(C)(C)C)cc1 [Example 10, (2S,4R)-1-[(2S)-2-[2-(3-{[5-(4-{3-[4-cyano-3-(trifluoromethyl)phenyl]-5,5-dimethyl-4-oxo-2-sulfanylideneimidazolidin-1-yl}-2-fluorophenoxy)pentyl]oxy}propoxy)acetamido]-3,3-dimethylbutanoyl]-4-hydroxy-N-[(1S)-1-[4-(4-methyl-1,3-thiazol-5-yl)phenyl]ethyl]pyrrolidine-2-carboxamide] | 51 to 70% | < 0.05 µM | < 0.05 µM | > 71% |  | 
Cc1ncsc1-c1ccc(CNC(=O)[C@@H]2C[C@@H](O)CN2C(=O)[C@@H](NC(=O)COCCCOCCCCOc2ccc(N3C(=S)N(c4ccc(C#N)c(C(F)(F)F)c4)C(=O)C3(C)C)cc2)C(C)C)cc1 [Example 29, (2S,4R)-1-[(2S)-2-(2-{3-[4-(4-{3-[4-cyano-3-(trifluoromethyl)phenyl]-5,5-dimethyl-4-oxo-2-sulfanylideneimidazolidin-1-yl}phenoxy)butoxy]propoxy}acetamido)-3-methylbutanoyl]-4-hydroxy-N-{[4-(4-methyl-1,3-thiazol-5-yl)phenyl]methyl}pyrrolidine-2-carboxamide] | 51 to 70% |  | 0.051 to 0.5 µM | 51 to 70% |  | 
Cc1ncsc1-c1ccc(CNC(=O)[C@@H]2C[C@@H](O)CN2C(=O)[C@@H](NC(=O)CCc2ccc(OCCOc3ccc(N4C(=S)N(c5ccc(C#N)c(C(F)(F)F)c5)C(=O)C4(C)C)cc3)cc2)C(C)(C)C)cc1 [Example 303] | 51 to 70% |  | < 0.05 µM |  | < 0.05 µM | > 71%
Cc1ncsc1-c1ccc(CNC(=O)[C@@H]2C[C@@H](O)CN2C(=O)[C@@H](NC(=O)c2cccc(OCCOCCOc3ccc(N4C(=S)N(c5ccc(C#N)c(C(F)(F)F)c5)C(=O)C4(C)C)cc3)c2)C(C)(C)C)cc1 [Example 283] |  |  | 0.051 to 0.5 µM |  |  | 51 to 70%
Cc1ncsc1-c1ccc(CNC(=O)[C@@H]2C[C@@H](O)CN2C(=O)[C@@H](NC(=O)COCCOCCCOCCCOc2ccc(N3C(=S)N(c4ccc(C#N)c(C(F)(F)F)c4)C(=O)C3(C)C)cc2)C(C)(C)C)cc1 [Example 262] |  |  | 0.051 to 0.5 µM |  |  | 26 to 50%
Cc1ncsc1-c1ccc(CNC(=O)[C@@H]2C[C@@H](O)CN2C(=O)[C@H](C(C)C)N2Cc3ccccc3C2=O)c(OCCOCCOCCCCOCCCCOCCOCCOc2ccc(N3C(=S)N(c4ccc(C#N)c(C(F)(F)F)c4)C(=O)C3(C)C)cc2)c1 [Example 219] |  |  |  |  |  | > 71%
Cc1ncsc1-c1ccc(CNC(=O)[C@@H]2C[C@H](O)CN2C(=O)[C@H](C(C)C)N2Cc3ccccc3C2=O)c(OCCOCCOCCOc2ccc(N3C(=S)N(c4ccc(C#N)c(C(F)(F)F)c4)C(=O)C3(C)C)cc2)c1 [Example 229] |  |  | 0.051 to 0.5 µM |  |  | 51 to 70%
Cc1ncsc1-c1ccc(CNC(=O)[C@@H]2C[C@@H](O)CN2C(=O)[C@@H](NC(=O)COCCCCOCCCCOc2ccc(N3C(=S)N(c4ccc(C#N)c(C(F)(F)F)c4)C(=O)C3(C)C)cc2)C(C)(C)C)cc1 [Example 24, (2S,4R)-1-[(2S)-2-(2-{4-[4-(4-{3-[4-cyano-3-(trifluoromethyl)phenyl]-5,5-dimethyl-4-oxo-2-sulfanylideneimidazolidin-1-yl}phenoxy)butoxy]butoxy}acetamido)-3,3-dimethylbutanoyl]-4-hydroxy-N-{[4-(4-methyl-1,3-thiazol-5-yl)phenyl]methyl}pyrrolidine-2-carboxamide] |  |  | < 0.05 µM | > 71% |  | 
Cc1ncsc1-c1ccc(CNC(=O)[C@@H]2C[C@@H](O)CN2C(=O)[C@@H](NC(=O)COCCOCCNC(=O)CCCc2ccc(N3C(=S)N(c4ccc(C#N)c(C(F)(F)F)c4)C(=O)C3(C)C)cc2)C(C)(C)C)cc1 [Example 62, (2S,4R)-1-((S)-2-tert-butyl-16-(4-(3-(4-cyano-3-(trifluoromethyl)phenyl)-5,5-dimethyl-4-oxo-2-thioxoimidazolidin-1-yl)phenyl)-4,13-dioxo-6,9-dioxa-3,12-diazahexadecane)-4-hydroxy-N-(4-(4-methylthiazol-5-yl)benzyl)pyrrolidine-2-carboxamide] |  |  | > 0.501 µM | 51 to 70% |  | 
Cc1ncsc1-c1ccc(CNC(=O)[C@@H]2C[C@@H](O)CN2C(=O)[C@H](C(C)C)N2Cc3cc(CCCOCCOc4ccc(N5C(=S)N(c6ccc(C#N)c(C(F)(F)F)c6)C(=O)C5(C)C)cc4)ccc3C2=O)cc1 [Example 248] |  |  | 0.051 to 0.5 µM |  |  | 26 to 50%
Cc1ncsc1-c1ccc(CNC(=O)[C@@H]2C[C@@H](O)CN2C(=O)[C@@H](NC(=O)COCCOCCN(C)C(=O)CCCc2ccc(N3C(=S)N(c4ccc(C#N)c(C(F)(F)F)c4)C(=O)C3(C)C)cc2)C(C)(C)C)cc1 [Example 64, (2S,4R)-1-[(2S)-2-[2-(2-{2-[4-(4-{3-[4-cyano-3-(trifluoromethyl)phenyl]-5,5-dimethyl-4-oxo-2-sulfanylideneimidazolidin-1-yl}phenyl)-N-methylbutanamido]ethoxy}ethoxy)acetamido]-3,3-dimethylbutanoyl]-4-hydroxy-N-{[4-(4-methyl-1,3-thiazol-5-yl)phenyl]methyl}pyrrolidine-2-carboxamide] |  |  | 0.051 to 0.5 µM | 51 to 70% |  | 
Cc1ncsc1-c1ccc(CNC(=O)[C@@H]2C[C@@H](O)CN2C(=O)[C@H](C(C)C)N2Cc3ccccc3C2=O)c(OCCOCCOCCCCCOCCCCCOCCOCCOc2ccc(N3C(=S)N(c4ccc(C#N)c(C(F)(F)F)c4)C(=O)C3(C)C)cc2)c1 [Example 220] |  |  |  |  |  | 51 to 70%
Cc1ncsc1-c1ccc(CNC(=O)C2C[C@@H](O)CN2C(=O)[C@H](C(C)C)N2Cc3ccccc3C2=O)c(OCCOCCOCCOc2ccc(N3C(=O)N(c4ccc(C#N)c(C(F)(F)F)c4)C(=O)C3(C)C)cc2)c1 (some centres unmarked) [Example 235] |  |  | 0.051 to 0.5 µM |  |  | 51 to 70%
Cc1ncsc1-c1ccc(CNC(=O)[C@@H]2C[C@@H](O)CN2C(=O)[C@H](C(C)C)N2Cc3cc(CCCCOCCOc4ccc(N5C(=S)N(c6ccc(C#N)c(C(F)(F)F)c6)C(=O)C5(C)C)cc4)ccc3C2=O)cc1 [Example 252] |  |  | 0.051 to 0.5 µM |  |  | 51 to 70%
Cc1ncsc1-c1ccc(CNC(=O)[C@@H]2C[C@@H](O)CN2C(=O)[C@@H](NC(=O)COCCCOCCCCCOc2ccc(N3C(=S)N(c4ccc(C#N)c(C(F)(F)F)c4)C(=O)C3(C)C)cc2F)C(C)(C)C)cc1 [Example 3, (2S,4R)-1-[(2S)-2-[2-(3-{[5-(4-{3-[4-cyano-3-(trifluoromethyl)phenyl]-5,5-dimethyl-4-oxo-2-sulfanylideneimidazolidin-1-yl}-2-fluorophenoxy)pentyl]oxy}propoxy)acetamido]-3,3-dimethylbutanoyl]-4-hydroxy-N-{[4-(4-methyl-1,3-thiazol-5-yl)phenyl]methyl}pyrrolidine-2-carboxamide] |  |  | < 0.05 µM | > 71% |  | 
Cc1ncsc1-c1ccc(CNC(=O)[C@@H]2C[C@@H](O)CN2C(=O)[C@H](C(C)C)N2Cc3ccccc3C2=O)c(OCCCCOCCCOc2ccc(N3C(=S)N(c4ccc(C#N)c(C(F)(F)F)c4)C(=O)C3(C)C)cc2)c1 [Example 279] |  |  | > 0.501 µM |  |  | 51 to 70%
Cc1ncsc1-c1ccc(CNC(=O)[C@@H]2C[C@@H](O)CN2C(=O)[C@@H](NC(=O)c2cccc(OCCCOc3ccc(N4C(=S)N(c5ccc(C#N)c(C(F)(F)F)c5)C(=O)C4(C)C)cc3)c2)C(C)(C)C)cc1 [Example 277] |  |  | 0.051 to 0.5 µM |  |  | < 25%
Cc1ncsc1-c1ccc(CNC(=O)[C@@H]2C[C@@H](O)CN2C(=O)[C@H](C(C)C)N2Cc3ccccc3C2=O)c(OCCO[C@@H]2CCC[C@@H]2OCCOc2ccc(N3C(=S)N(c4ccc(C#N)c(C(F)(F)F)c4)C(=O)C3(C)C)cc2)c1 [Example 304] |  |  | 0.051 to 0.5 µM |  |  | 26 to 50%
Cc1ncsc1-c1ccc(CNC(=O)[C@@H]2C[C@@H](O)CN2C(=O)[C@H](C(C)C)N2Cc3ccccc3C2=O)c(OCCOCCOc2ccc(N3C(=S)N(c4ccc(C#N)c(C(F)(F)F)c4)C(=O)C3(C)C)cc2)c1 [Example 206] |  |  | 0.051 to 0.5 µM |  |  | 51 to 70%

— patent US11427548B2 (Arvinas Operations, Inc., priority 2015, dated 2022)
